According to ChEMBL document CHEMBL1150211, “Structure of Irniine, a Pyrrolidine Alkaloid from Arisarum vulgare” (J Nat Prod, 1992):
≈ marks a conversion by molar mass, not a printed value.

Test: Toxicity in brine shrimp
Format: organism-based
Details: artemia, in vivo

Work on CN1CCC[C@H]1CCCCCCCCCc1ccccc1 yielded an LC50 of 1 µg/mL (≈ 3.48 µM).
